# Measurements: ChEMBL document CHEMBL3871262, “β-Ionone and its analogs as promising anticancer agents” (Eur J Med Chem, 2016)
# Key:
# [1] = Growth inhibition of human SGC7901 cells at 200 uM after 8 days by MTT assay relative to control; assay type: functional; conditions: SGC-7901, 192 h, read-out: GI
# [2] = Growth inhibition of human SGC7901 cells at 50 uM after 8 days by MTT assay relative to control; assay type: functional; conditions: SGC-7901, 192 h, read-out: GI
# [3] = Growth inhibition of human MDA-MB-435 cells at 25 uM after 7 days relative to control; assay type: functional; conditions: MDA-MB-435, 168 h, read-out: GI
# [4] = Growth inhibition of human SGC7901 cells at 200 uM after 24 to 48 hrs by MTT assay relative to control; assay type: functional; conditions: SGC-7901, read-out: GI
# [5] = Antiproliferative activity against human DU145 cells after 72 hrs by flow cytometry; assay type: functional, cell-based; conditions: DU-145, 72 h
# [6] = tested on: Rattus norvegicus; test: Antitumor activity against DMBA-induced mammary carcinogenesis in Sprague-Dawley rat assessed as tumor incidence at 18 mmol/kg administered with AIN-76A diet treated 2 weeks prior to DMBA addition for 24 weeks by hematoxylin and eosin staining based microscopic analysis (reference value: 82.1%); assay type: functional
# [7] = tested on: Rattus norvegicus; test: (§1) Antitumor activity against DMBA-induced mammary carcinogenesis in Sprague-Dawley rat assessed as inhibition of tumor formation at 9 mmol/kg administered with AIN-76A diet treated 2 weeks prior to DMBA addition for 24 weeks by hematoxylin and eosin staining based microscopic analysis relative to DMBA treated control; assay type: functional
# [8] = Growth inhibition of human SGC7901 cells at 50 uM after 24 to 48 hrs by MTT assay relative to control; assay type: functional; conditions: SGC-7901, read-out: GI
# [9] = tested on: Rattus norvegicus; test: as §1, with “36” for “9”; assay type: functional
# [10] = Growth inhibition of human SGC7901 cells at 25 uM after 24 to 48 hrs by MTT assay relative to control; assay type: functional; conditions: SGC-7901, read-out: GI
# [11] = tested on: MDA-MB-435; test: Inhibition of cell mitosis in human MDA-MB-435 cells after 48 hrs relative to control; assay type: functional
# [12] = Antiproliferative activity against human PC3 cells after 72 hrs by flow cytometry; assay type: functional, cell-based; conditions: PC-3, 72 h
# [13] = Growth inhibition of human SGC7901 cells at 25 uM after 8 days by MTT assay relative to control; assay type: functional; conditions: SGC-7901, 192 h, read-out: GI
# [14] = Growth inhibition of human SGC7901 cells after 24 to 48 hrs by MTT assay; assay type: functional, cell-based; conditions: SGC-7901
# [15] = Antiproliferative activity against human MCF7 cells; assay type: functional, cell-based
# [16] = Growth inhibition of human SGC7901 cells at 100 uM after 8 days by MTT assay relative to control; assay type: functional; conditions: SGC-7901, 192 h, read-out: GI
# [17] = tested on: Rattus norvegicus; test: as §1, with “18” for “9”; assay type: functional
# [18] = Antiproliferative activity against human SGC7901 cells; assay type: functional, cell-based; conditions: SGC-7901
# [19] = tested on: Rattus norvegicus; test: Antitumor activity against DMBA-induced mammary carcinogenesis in Sprague-Dawley rat assessed as tumor incidence at 9 mmol/kg administered with AIN-76A diet treated 2 weeks prior to DMBA addition for 24 weeks by hematoxylin and eosin staining based microscopic analysis (reference value: 82.1%); assay type: functional
# [20] = Growth inhibition of human MDA-MB-435 cells after 7 days relative to control; assay type: functional, cell-based; conditions: MDA-MB-435, 168 h
# [21] = tested on: Rattus norvegicus; test: Antitumor activity against DMBA-induced mammary carcinogenesis in Sprague-Dawley rat assessed as tumor incidence at 36 mmol/kg administered with AIN-76A diet treated 2 weeks prior to DMBA addition for 24 weeks by hematoxylin and eosin staining based microscopic analysis (reference value: 82.1%); assay type: functional
# [22] = Growth inhibition of human MDA-MB-435 cells at 200 uM after 7 days relative to control; assay type: functional; conditions: MDA-MB-435, 168 h, read-out: GI
# [23] = tested on: MCF7; test: Induction of apoptosis in human MCF7 cells assessed as inhibition of DNA synthesis at 48 hrs relative to control; assay type: functional
# [24] = tested on: MCF7; test: Inhibition of cell mitosis in human MCF7 cells after 48 hrs relative to control; assay type: functional
# [25] = Growth inhibition of human MDA-MB-435 cells at 50 uM after 7 days relative to control; assay type: functional; conditions: MDA-MB-435, 168 h, read-out: GI
# [26] = Growth inhibition of human SGC7901 cells at 100 uM after 24 to 48 hrs by MTT assay relative to control; assay type: functional; conditions: SGC-7901, read-out: GI
# [27] = tested on: MDA-MB-435; test: Induction of apoptosis in human MDA-MB-435 cells assessed as inhibition of DNA synthesis after 48 hrs relative to control; assay type: functional
# [28] = Growth inhibition of human MDA-MB-435 cells at 100 uM after 7 days relative to control; assay type: functional; conditions: MDA-MB-435, 168 h, read-out: GI
# [29] = Antiproliferative activity against human LNCAP cells after 72 hrs by flow cytometry; assay type: functional, cell-based
# [30] = tested on: MDA-MB-435; test: Inhibition of clone formation in human MDA-MB-435 cells after 48 hrs relative to control; assay type: functional
# [31] = Cytotoxicity against human PC3 cells assessed as decrease in cell viability after 72 hrs by MTT assay; assay type: functional, cell-based; conditions: PC-3, 72 h
# [32] = Cytotoxicity against human DU145 cells assessed as decrease in cell viability after 72 hrs by MTT assay; assay type: functional, cell-based; conditions: DU-145, 72 h
# [33] = Cytotoxicity against human 22Rv1 cells harboring AR H874Y mutant assessed as decrease in cell viability after 72 hrs by MTT assay; assay type: functional, cell-based, CWR22R; conditions: 22Rv1, 72 h
# [34] = Cytotoxicity against human LNCAP cells harboring AR T877A mutant assessed as decrease in cell viability after 72 hrs by MTT assay; assay type: functional, cell-based
# [35] = Cytotoxicity against human C4-2B cells harboring AR T877A mutant assessed as decrease in cell viability after 72 hrs by MTT assay; assay type: functional, cell-based; conditions: LNCaP C4-2B
# [36] = Cytotoxicity against human MDA PCa 2b cells harboring AR T877A/L701H double mutant assessed as decrease in cell viability after 72 hrs by MTT assay; assay type: functional, cell-based
structure (smiles),measurement,setting,value
CC(=O)/C=C/C1=C(C)CCCC1(C)C [BETA-IONONE],inhibition of growth at 200 µM,[1],90.1%
same,inhibition of growth at 50 µM,[2],28.2%
same,inhibition of growth at 25 µM,[3],45.6%
same,inhibition of growth at 200 µM,[4],94.2%
same,IC50,[5],210 µM
same,Activity,[6],25.9%
same,inhibition in vivo at 9000 µmol/kg,[7],35.4%
same,inhibition of growth at 50 µM,[8],30.6%
same,inhibition in vivo at 36000 µmol/kg,[9],87.8%
same,inhibition of growth at 25 µM,[10],12%
same,inhibition (INH),[11],75.12%
same,IC50,[12],130 µM
same,inhibition of growth at 25 µM,[13],25.9%
same,IC50,[14],89 µM
same,IC50,[15],104 µM
same,inhibition of growth at 100 µM,[16],74.4%
same,inhibition in vivo at 18000 µmol/kg,[17],68.3%
same,IC50,[18],175 µM
same,Activity,[19],53.3%
same,IC50,[20],42 µM
same,Activity,[21],10%
same,inhibition of growth at 200 µM,[22],84.9%
same,inhibition (INH),[23],35.1 - 81.89%
same,inhibition (INH),[24],87.79%
same,inhibition of growth at 50 µM,[25],71.2%
same,inhibition of growth at 100 µM,[26],78.2%
same,inhibition (INH),[27],78.35%
same,inhibition of growth at 100 µM,[28],81.5%
same,IC50,[29],130 µM
same,inhibition (INH),[30],95.55%
COc1cc(/C=C(\C(=O)/C=C/C2=C(C)C(O)CCC2(C)C)C(=O)/C=C/c2ccc(O)c(OC)c2)ccc1O (stereo not given),IC50,[31],1200 to 5600 nM
same,IC50,[32],1.2 to 5.6 µM
same,IC50,[33],1200 to 5600 nM
same,IC50,[34],1200 to 5600 nM
same,IC50,[35],1200 to 5600 nM
CC1=C(/C=C/C(=O)/C=C/c2csc3ccccc23)C(C)(C)CCC1O (stereo not given),IC50,[31],570 to 2000 nM
same,IC50,[33],570 to 2000 nM
same,IC50,[36],570 to 2000 nM
same,IC50,[34],570 to 2000 nM
same,IC50,[35],570 to 2000 nM
